# Laboratory results from ChEMBL document CHEMBL4190266, “Deconstruction - reconstruction approach to analyze the essential structural elements of tetrahydro-3-benzazepine-based antagonists of GluN2B subunit containing NMDA receptors” (Eur J Med Chem, 2017).
# Tests used:
# [1] = Displacement of [3H]ifenprodil from recombinant human GluN1A/GluN2B receptor expressed in mouse L(tk-) cell membranes after 120 mins by microbeta scintillation counting method
# [2] = Selectivity ratio of Ki for sigma1 receptor in guinea pig brain cortex membranes to Ki for recombinant human GluN1A/GluN2B receptor expressed in mouse L(tk-) cell membranes; assay type: cell-based
# [3] = target: T1, Sigma intracellular receptor 2 (Rattus norvegicus, UniProt Q5U3Y7); experiment: Displacement of [3H]DTG from sigma2 receptor in rat liver membranes after 120 mins by microbeta scintillation counting method; assay type: cell membranes, Membrane
# T1 sequence (Q5U3Y7 whole entry): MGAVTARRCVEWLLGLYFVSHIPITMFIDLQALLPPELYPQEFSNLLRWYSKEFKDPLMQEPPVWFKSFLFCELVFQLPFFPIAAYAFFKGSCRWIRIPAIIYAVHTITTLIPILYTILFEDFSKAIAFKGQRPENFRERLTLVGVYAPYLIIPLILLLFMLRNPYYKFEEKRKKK
# [4] = Selectivity ratio of Ki for sigma2 receptor in rat liver membranes to Ki for recombinant human GluN1A/GluN2B receptor expressed in mouse L(tk-) cell membranes; assay type: cell-based
# [5] = target: Sigma non-opioid intracellular receptor 1 (Cavia porcellus, UniProt Q60492)
# Sequence of Sigma non-opioid intracellular receptor 1 (Q60492 whole entry): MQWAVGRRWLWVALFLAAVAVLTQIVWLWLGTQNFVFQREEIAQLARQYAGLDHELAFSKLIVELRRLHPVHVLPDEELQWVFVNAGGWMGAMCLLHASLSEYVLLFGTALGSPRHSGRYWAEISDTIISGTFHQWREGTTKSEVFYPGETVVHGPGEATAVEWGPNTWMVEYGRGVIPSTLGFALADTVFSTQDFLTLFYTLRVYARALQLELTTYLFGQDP
# Description: Displacement of [3H]-(+)-pentazocine from sigma1 receptor in guinea pig brain cortex membranes after 120 mins by microbeta scintillation counting method
# [6] = n-Octanol-buffer distribution coefficient, log D of the compound at pH 7.4 by mass spectrometry based shake flask method; assay type: physicochemical
# [7] = species: Homo sapiens; experiment: Antagonist activity at glutamate/glycine-stimulated recombinant human GluN1A/GluN2B receptor expressed in mouse L(tk-) cells assessed as protection against receptor overstimulation-induced excitotoxicity at 10 to 100 uM preincubated for 30 mins followed by glutamate/glycine stimulation measured after 6 hrs by LDH release assay relative to control; assay type: cell-based
# [8] = Antagonist activity at GluN1A/GluN2A receptor (unknown origin) expressed in Xenopus laevis oocytes assessed as inhibition of glutamate/glycine-induced channel current at 1 uM at -70 mV holding potential by two electrode voltage clamp method relative to control; assay type: cell-based; details: Homo sapiens
# [9] = Selectivity ratio of Ki for PCP binding site of NMDA receptor in pig brain cortex membranes to Ki for recombinant human GluN1A/GluN2B receptor expressed in mouse L(tk-) cell membranes
Ki [3] [nM],Ki [5] [nM],logD [6],inhibition [8] [%],SMILES,Ki [1] [nM],Ratio Ki [2],Ratio Ki [4],inhibition [7] [%],Ratio Ki [9]
116,100,,,O=[N+]([O-])c1ccc2c(c1)C(O)CN(CCCCCc1ccccc1)CC2 (stereo not drawn),240,0.4,0.5,,
,,1.67,,Oc1ccc2c(c1)CCN(CCCCc1ccccc1)CC2O (stereo not drawn),,,,,
119,460,,,OC1CN(CCCCCc2ccccc2)CCc2ccccc21 (stereo not drawn),67,7,2,,
35,10,3.13,,c1ccc(CCCCN2CCc3ccccc3CC2)cc1,230,0.04,0.15,,
110,260,,,Nc1ccc2c(c1)C(O)CN(CCCCCc1ccccc1)CC2 (stereo not drawn),130,2,0.9,,
1100,> 10000,,,COc1ccc(C(=O)CCCN2CCc3ccccc3C(O)C2)cc1 (stereo not drawn),> 1000,,,,
3200,1600,,,OC1CN(CCc2ccccc2)CCc2ccccc21 (stereo not drawn),,1,2,,
34,3.5,,13,OC1CN(C2CCN(Cc3ccccc3)CC2)CCc2ccccc21 (stereo not drawn),6,0.6,6,< 6,
280,> 10000,,,OC1CN(CCCCOc2ccccc2)CCc2ccccc21 (stereo not drawn),250,> 41,1,,
170,48,,,c1ccc(CCCCCN2CCc3ccccc3CC2)cc1,110,0.4,1,,
1400,800,,,O=C(c1ccccc1)N1CCC(N2CCc3ccccc3C(O)C2)CC1 (stereo not drawn),890,0.9,2,,
4600,320,,,O=[N+]([O-])c1ccc2c(c1)C(O)CN(Cc1ccccc1)CC2 (stereo not drawn),> 1000,< 0.3,,,
24,360,,4.8,O=[N+]([O-])c1ccc2c(c1)C(O)CN(C1CCC(c3ccccc3)CC1)CC2 (mixture of isomers),16,23,2,< 6,
> 10000,1800,,,O=[N+]([O-])c1ccc2c(c1)C(O)CN(CCc1ccccc1)CC2 (stereo not drawn),1600,1,6,,
61,1100,,,O=C(CCCN1CCc2ccccc2C(O)C1)c1ccc(F)cc1 (stereo not drawn),,4,0.2,,
,,2.7,,OC1CN(CCCCc2ccccc2)CCc2ccccc21 (stereo not drawn),,,,,
1000,1500,,,O=[N+]([O-])c1ccc2c(c1)C(O)CN(CCCCOc1ccccc1)CC2 (stereo not drawn),770,2,1,,
300,1300,,,O=[N+]([O-])c1ccc2c(c1)C(O)CN(CCCc1ccccc1)CC2 (stereo not drawn),110,12,3,,
1400,2800,,,O=[N+]([O-])c1ccc2c(c1)C(O)CN(Cc1ccc(-c3ccccc3)cc1F)CC2 (stereo not drawn),> 1000,,,,
970,> 10000,1.58,,Nc1ccc2c(c1)C(O)CN(CCCCc1ccccc1)CC2 (stereo not drawn),1000,> 10,1,,
,,,,OC(CN1CCC(Cc2ccc(F)cc2)CC1)c1ccc(Cl)cc1 (stereo not drawn) [ELIPRODIL],13,,,,
,,,87,CC(C(O)c1ccc(O)cc1)N1CCC(Cc2ccccc2)CC1 (stereo not drawn) [IFENPRODIL],10,,,,
55,82,,0.8,OC1CN(C2CCC(c3ccccc3)CC2)CCc2ccccc21 (mixture of isomers),2.2,37,25,< 6,> 4500
760,230,,,OC1CN(Cc2ccc(-c3ccccc3)cc2)CCc2ccccc21 (stereo not drawn),210,1,4,,
220,621,3.82,,O=[N+]([O-])c1ccc2c(c1)C(O)CN(CCCCc1ccccc1)CC2 (stereo not drawn),300,2,0.7,,
120,16,,,c1ccc(-c2ccc(CN3CCc4ccccc4CC3)cc2)cc1,75,0.2,2,,
